experiment: Lipophilicity by reversed-phase TLC on RP-18 WF254s plates with standardization; details: acetonitrile/water

| S (slope of the trend line RM vs φ) | Compound | R M0 (lipophilicity extrapolated to 100 % water) |
| --- | --- | --- |
| 2.0876 | O=c1ccc2ccc(O)cc2o1 [Compound 7, umbelliferone] | 0.7232 |
| 2.5539 | Cc1cc(=O)oc2cc(O)ccc12 [Compound 8, 7-hydroxy-4-methylcoumarin] | – |
| 3.0614 | CC(=O)c1c(O)ccc2c(C)cc(=O)oc12 [Compound 9, 8-Acetyl-7-hydroxy-4-methylcoumarin] | – |
| 2.9356 | CC(=O)c1cc2c(C)cc(=O)oc2cc1O [Compound 11, 6-Acetyl-7-hydroxy-4-methylcoumarin] | – |
| 4.1309 | c1ccc(Nc2ccccc2)cc1 [Diphenylamine, diphenylamine, reference compound] | – |

| Compound | S (slope of the trend line RM vs φ) | R M0 (lipophilicity extrapolated to 100 % water) |
| --- | --- | --- |
| O=[N+]([O-])c1ccccc1O [2-Nitrophenol, 2-nitrophenol, reference compound] | 2.5429 | 1.1246 |
| O=C(c1ccccc1)c1ccccc1 [Benzophenone, benzophenone, reference compound] | 4.1335 | – |
| CC(=O)Oc1cc(C)cc2oc(=O)cc(C)c12 [Compound 2a, 5-acetoxy-4,7-dimethylcoumarin] | 3.6418 | – |
| CC(=O)Oc1ccc2c(C)cc(=O)oc2c1 [Compound 10, 7-Acetoxy-4-methylcoumarin] | 3.506 | – |

same assay, conditions: acetonitrile/water, molar fraction for which lipophilicity equals 0

| φ 0 (intercept of the trend line with abscissa axis) | Compound |
| --- | --- |
| 0.346 | O=c1ccc2ccc(O)cc2o1 [Compound 7, umbelliferone] |
| 0.382 | Cc1cc(=O)oc2cc(O)ccc12 [Compound 8, 7-hydroxy-4-methylcoumarin] |
| 0.464 | CC(=O)c1c(O)ccc2c(C)cc(=O)oc12 [Compound 9, 8-Acetyl-7-hydroxy-4-methylcoumarin] |
| 0.425 | CC(=O)c1cc2c(C)cc(=O)oc2cc1O [Compound 11, 6-Acetyl-7-hydroxy-4-methylcoumarin] |

| Compound | φ 0 (intercept of the trend line with abscissa axis) |
| --- | --- |
| CC(=O)Oc1cc(C)cc2oc(=O)cc(C)c12 [Compound 2a, 5-acetoxy-4,7-dimethylcoumarin] | 0.481 |
| CC(=O)Oc1ccc2c(C)cc(=O)oc2c1 [Compound 10, 7-Acetoxy-4-methylcoumarin] | 0.526 |

same assay, conditions: dioxane/water

| S (slope of the trend line RM vs φ) | Compound | R M0 (lipophilicity extrapolated to 100 % water) |
| --- | --- | --- |
| 1.8746 | O=c1ccc2ccc(O)cc2o1 [Compound 7, umbelliferone] | 0.6676 |
| 2.2314 | Cc1cc(=O)oc2cc(O)ccc12 [Compound 8, 7-hydroxy-4-methylcoumarin] | – |
| 3.2472 | CC(=O)c1c(O)ccc2c(C)cc(=O)oc12 [Compound 9, 8-Acetyl-7-hydroxy-4-methylcoumarin] | – |
| 2.5162 | CC(=O)c1cc2c(C)cc(=O)oc2cc1O [Compound 11, 6-Acetyl-7-hydroxy-4-methylcoumarin] | – |
| 3.8375 | c1ccc(Nc2ccccc2)cc1 [Diphenylamine, diphenylamine, reference compound] | – |

| Compound | S (slope of the trend line RM vs φ) | R M0 (lipophilicity extrapolated to 100 % water) |
| --- | --- | --- |
| O=[N+]([O-])c1ccccc1O [2-Nitrophenol, 2-nitrophenol, reference compound] | 2.2497 | 1.0657 |
| O=C(c1ccccc1)c1ccccc1 [Benzophenone, benzophenone, reference compound] | 3.6381 | – |
| CC(=O)Oc1cc(C)cc2oc(=O)cc(C)c12 [Compound 2a, 5-acetoxy-4,7-dimethylcoumarin] | 3.2936 | – |
| CC(=O)Oc1ccc2c(C)cc(=O)oc2c1 [Compound 10, 7-Acetoxy-4-methylcoumarin] | 3.3341 | – |

same assay, conditions: dioxane/water, molar fraction for which lipophilicity equals 0

| φ 0 (intercept of the trend line with abscissa axis) | Compound |
| --- | --- |
| 0.356 | O=c1ccc2ccc(O)cc2o1 [Compound 7, umbelliferone] |
| 0.409 | Cc1cc(=O)oc2cc(O)ccc12 [Compound 8, 7-hydroxy-4-methylcoumarin] |
| 0.508 | CC(=O)c1c(O)ccc2c(C)cc(=O)oc12 [Compound 9, 8-Acetyl-7-hydroxy-4-methylcoumarin] |
| 0.409 | CC(=O)c1cc2c(C)cc(=O)oc2cc1O [Compound 11, 6-Acetyl-7-hydroxy-4-methylcoumarin] |

| Compound | φ 0 (intercept of the trend line with abscissa axis) |
| --- | --- |
| CC(=O)Oc1cc(C)cc2oc(=O)cc(C)c12 [Compound 2a, 5-acetoxy-4,7-dimethylcoumarin] | 0.474 |
| CC(=O)Oc1ccc2c(C)cc(=O)oc2c1 [Compound 10, 7-Acetoxy-4-methylcoumarin] | 0.518 |

same assay, conditions: isopropanol/water

| S (slope of the trend line RM vs φ) | Compound | R M0 (lipophilicity extrapolated to 100 % water) |
| --- | --- | --- |
| 1.6695 | O=c1ccc2ccc(O)cc2o1 [Compound 7, umbelliferone] | 0.5162 |
| 2.0405 | Cc1cc(=O)oc2cc(O)ccc12 [Compound 8, 7-hydroxy-4-methylcoumarin] | – |
| 2.6277 | CC(=O)c1c(O)ccc2c(C)cc(=O)oc12 [Compound 9, 8-Acetyl-7-hydroxy-4-methylcoumarin] | – |
| 2.8074 | CC(=O)c1cc2c(C)cc(=O)oc2cc1O [Compound 11, 6-Acetyl-7-hydroxy-4-methylcoumarin] | – |
| 4.6873 | c1ccc(Nc2ccccc2)cc1 [Diphenylamine, diphenylamine, reference compound] | – |

| Compound | S (slope of the trend line RM vs φ) | R M0 (lipophilicity extrapolated to 100 % water) |
| --- | --- | --- |
| O=[N+]([O-])c1ccccc1O [2-Nitrophenol, 2-nitrophenol, reference compound] | 2.9639 | 1.2375 |
| O=C(c1ccccc1)c1ccccc1 [Benzophenone, benzophenone, reference compound] | 4.4575 | – |
| CC(=O)Oc1cc(C)cc2oc(=O)cc(C)c12 [Compound 2a, 5-acetoxy-4,7-dimethylcoumarin] | 3.8312 | – |
| CC(=O)Oc1ccc2c(C)cc(=O)oc2c1 [Compound 10, 7-Acetoxy-4-methylcoumarin] | 3.436 | – |

same assay, conditions: isopropanol/water, molar fraction for which lipophilicity equals 0

| φ 0 (intercept of the trend line with abscissa axis) | Compound |
| --- | --- |
| 0.309 | O=c1ccc2ccc(O)cc2o1 [Compound 7, umbelliferone] |
| 0.372 | Cc1cc(=O)oc2cc(O)ccc12 [Compound 8, 7-hydroxy-4-methylcoumarin] |
| 0.446 | CC(=O)c1c(O)ccc2c(C)cc(=O)oc12 [Compound 9, 8-Acetyl-7-hydroxy-4-methylcoumarin] |
| 0.362 | CC(=O)c1cc2c(C)cc(=O)oc2cc1O [Compound 11, 6-Acetyl-7-hydroxy-4-methylcoumarin] |

| Compound | φ 0 (intercept of the trend line with abscissa axis) |
| --- | --- |
| CC(=O)Oc1cc(C)cc2oc(=O)cc(C)c12 [Compound 2a, 5-acetoxy-4,7-dimethylcoumarin] | 0.424 |
| CC(=O)Oc1ccc2c(C)cc(=O)oc2c1 [Compound 10, 7-Acetoxy-4-methylcoumarin] | 0.448 |

same assay, conditions: methanol/water

| S (slope of the trend line RM vs φ) | Compound | R M0 (lipophilicity extrapolated to 100 % water) |
| --- | --- | --- |
| 1.9022 | O=c1ccc2ccc(O)cc2o1 [Compound 7, umbelliferone] | 0.9623 |
| 2.0525 | Cc1cc(=O)oc2cc(O)ccc12 [Compound 8, 7-hydroxy-4-methylcoumarin] | – |
| 2.5967 | CC(=O)c1c(O)ccc2c(C)cc(=O)oc12 [Compound 9, 8-Acetyl-7-hydroxy-4-methylcoumarin] | – |
| 1.8855 | CC(=O)c1cc2c(C)cc(=O)oc2cc1O [Compound 11, 6-Acetyl-7-hydroxy-4-methylcoumarin] | – |
| 2.9469 | c1ccc(Nc2ccccc2)cc1 [Diphenylamine, diphenylamine, reference compound] | – |

| Compound | S (slope of the trend line RM vs φ) | R M0 (lipophilicity extrapolated to 100 % water) |
| --- | --- | --- |
| O=[N+]([O-])c1ccccc1O [2-Nitrophenol, 2-nitrophenol, reference compound] | 1.9676 | 1.0469 |
| O=C(c1ccccc1)c1ccccc1 [Benzophenone, benzophenone, reference compound] | 3.2945 | – |
| CC(=O)Oc1cc(C)cc2oc(=O)cc(C)c12 [Compound 2a, 5-acetoxy-4,7-dimethylcoumarin] | 2.5335 | – |
| CC(=O)Oc1ccc2c(C)cc(=O)oc2c1 [Compound 10, 7-Acetoxy-4-methylcoumarin] | 2.3174 | – |

same assay, conditions: methanol/water, molar fraction for which lipophilicity equals 0

| φ 0 (intercept of the trend line with abscissa axis) | Compound |
| --- | --- |
| 0.506 | O=c1ccc2ccc(O)cc2o1 [Compound 7, umbelliferone] |
| 0.567 | Cc1cc(=O)oc2cc(O)ccc12 [Compound 8, 7-hydroxy-4-methylcoumarin] |
| 0.697 | CC(=O)c1c(O)ccc2c(C)cc(=O)oc12 [Compound 9, 8-Acetyl-7-hydroxy-4-methylcoumarin] |
| 0.526 | CC(=O)c1cc2c(C)cc(=O)oc2cc1O [Compound 11, 6-Acetyl-7-hydroxy-4-methylcoumarin] |

| Compound | φ 0 (intercept of the trend line with abscissa axis) |
| --- | --- |
| CC(=O)Oc1cc(C)cc2oc(=O)cc(C)c12 [Compound 2a, 5-acetoxy-4,7-dimethylcoumarin] | 0.642 |
| CC(=O)Oc1ccc2c(C)cc(=O)oc2c1 [Compound 10, 7-Acetoxy-4-methylcoumarin] | 0.680 |
